Results as given in patent US20230312550A1, “N-(2-(4-CYANOTHIAZOLIDIN-3-YL)-2-OXOETHYL)-QUINOLINE-4-CARBOXAMIDES” (AstraZeneca AB, priority 2020, published 2023).
pIC50, pKd: −log10 of the molar value. Values after ≈ are worked out from the molar mass of the structure shown.

Columns and labels:
[1] = Metabolic stability in rat hepatocytes (rHep); details: n = 1 or geometric mean of n = 2-3
[2] = Metabolic stability in human liver microsomes (HLM); details: for microsomal CLint: human
Protocol: Metabolic stability in HLM was measured as described in J Comput Aided Mol Des 2015, 29, 795.

[3] = target: Prolyl endopeptidase, Prolyl Oligopeptidase (hPREP) (Homo sapiens (Human), UniProt P48147); test: hPrep inhibition assay; format: biochemical; details: hPREP 0.6 nM, Z-Gly-Pro-amino-methylcoumarin 50 μM; read-out: PREP IC50
Protocol: Compounds were tested in a biochemical inhibition assay using Prolyl endopeptidase, Prolyl Oligopeptidase (hPREP) enzyme at 0.6 nM FAC (R&D Systems, 4308-SE) and the substrate Z-Gly-Pro-amino-methylcoumarin (Bachem, I-1145) at 50 μM FAC. 384 Low volume black plates (Greiner #784076) were used. […] Plates were incubated for 15 min at rt in dark. 4 μL, 100 μM substrate solution (25 mM Tris HCl, 250 mM NaCl, 0.01% Triton X-100, 5 mM Glutathione, pH 7.5) was added to each well. Plates were centrifuged at 1000 rpm and incubated for 20 min at rt in dark. The plates were read on a PHERAstar® reader with excitation 340 nm and emission 460 nm. Data were analyzed in Genedata Screener®. IC50 values were determined by plotting % inhibition versus log compound concentration and using a one site dose response model.

[4] = target: human Fibroblast activation protein alpha (hFAP) (Homo sapiens (Human), UniProt Q12884); test: hFAP inhibition assay (tight binders); format: biochemical; details: Ala-Pro-AMC 20 μM, n = 1 or geometric mean n = 2-6; further: hFAP 2.4 pM
Protocol: The plates were read on a PHERAstar® reader with excitation 340 nm and emission 460 nm. Data were analyzed in Genedata Screener®. IC50 values were determined by plotting % inhibition versus log compound concentration and using a one site dose response model.

hFAP (M39-A757) = hFAP (M39-A757) (Homo sapiens (Human), UniProt Q12884); test: hFAP binding assay (surface plasmon resonance); details: SPR, 20° C.; for hFAP Binding assay k(off) / hFAP Binding assay k(on): single cycle kinetics; for pKd: n = 1 or geometric mean n = 2-4
[5] = HLM CLint, n = 1 or average of n = 2-3
[6] = kinetic from dmso stock, Solubility, kinetic solubility, n = 1 or average of n = 2-3
[7] = kinetic solubility, n = 1 or average of n = 2-3

Prolyl endopeptidase, Prolyl Oligopeptidase (hPREP), sequence (P48147 whole entry): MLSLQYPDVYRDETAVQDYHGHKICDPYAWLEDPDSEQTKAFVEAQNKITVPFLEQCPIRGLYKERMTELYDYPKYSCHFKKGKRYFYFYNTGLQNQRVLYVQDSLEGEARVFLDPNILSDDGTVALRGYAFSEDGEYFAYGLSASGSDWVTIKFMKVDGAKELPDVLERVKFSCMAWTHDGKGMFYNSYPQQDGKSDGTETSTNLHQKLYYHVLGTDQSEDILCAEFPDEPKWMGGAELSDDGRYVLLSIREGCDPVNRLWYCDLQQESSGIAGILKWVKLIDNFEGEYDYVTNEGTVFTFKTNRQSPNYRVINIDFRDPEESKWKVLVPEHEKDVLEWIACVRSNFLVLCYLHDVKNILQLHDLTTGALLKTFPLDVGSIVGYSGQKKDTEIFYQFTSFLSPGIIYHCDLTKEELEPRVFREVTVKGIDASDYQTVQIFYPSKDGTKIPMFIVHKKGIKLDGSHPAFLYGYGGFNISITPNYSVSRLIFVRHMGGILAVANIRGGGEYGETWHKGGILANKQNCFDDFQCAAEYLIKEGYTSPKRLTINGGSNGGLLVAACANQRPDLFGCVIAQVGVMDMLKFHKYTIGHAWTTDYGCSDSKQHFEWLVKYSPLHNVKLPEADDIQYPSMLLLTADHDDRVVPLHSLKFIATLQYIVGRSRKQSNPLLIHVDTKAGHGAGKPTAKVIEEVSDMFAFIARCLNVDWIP
hFAP (M39-A757), sequence (Q12884 39-757): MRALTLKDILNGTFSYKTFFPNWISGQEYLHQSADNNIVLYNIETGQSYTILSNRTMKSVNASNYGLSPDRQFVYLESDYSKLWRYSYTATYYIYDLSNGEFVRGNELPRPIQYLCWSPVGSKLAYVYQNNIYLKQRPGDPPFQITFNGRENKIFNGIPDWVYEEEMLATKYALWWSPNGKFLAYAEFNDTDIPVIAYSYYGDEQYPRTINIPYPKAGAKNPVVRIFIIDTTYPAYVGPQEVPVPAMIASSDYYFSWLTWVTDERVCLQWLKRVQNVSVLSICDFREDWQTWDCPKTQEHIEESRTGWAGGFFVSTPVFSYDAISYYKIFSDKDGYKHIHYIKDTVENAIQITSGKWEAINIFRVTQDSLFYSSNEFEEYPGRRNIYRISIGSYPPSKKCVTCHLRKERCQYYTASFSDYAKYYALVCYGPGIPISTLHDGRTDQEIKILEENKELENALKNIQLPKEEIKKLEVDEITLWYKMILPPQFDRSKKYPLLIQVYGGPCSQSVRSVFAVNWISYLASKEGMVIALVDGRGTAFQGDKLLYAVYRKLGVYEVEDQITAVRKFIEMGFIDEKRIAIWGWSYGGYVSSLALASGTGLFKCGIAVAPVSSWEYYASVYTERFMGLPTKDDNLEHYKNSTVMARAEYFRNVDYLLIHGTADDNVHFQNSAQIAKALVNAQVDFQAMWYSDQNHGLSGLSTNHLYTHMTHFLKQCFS
human Fibroblast activation protein alpha (hFAP), sequence (Q12884 38-760): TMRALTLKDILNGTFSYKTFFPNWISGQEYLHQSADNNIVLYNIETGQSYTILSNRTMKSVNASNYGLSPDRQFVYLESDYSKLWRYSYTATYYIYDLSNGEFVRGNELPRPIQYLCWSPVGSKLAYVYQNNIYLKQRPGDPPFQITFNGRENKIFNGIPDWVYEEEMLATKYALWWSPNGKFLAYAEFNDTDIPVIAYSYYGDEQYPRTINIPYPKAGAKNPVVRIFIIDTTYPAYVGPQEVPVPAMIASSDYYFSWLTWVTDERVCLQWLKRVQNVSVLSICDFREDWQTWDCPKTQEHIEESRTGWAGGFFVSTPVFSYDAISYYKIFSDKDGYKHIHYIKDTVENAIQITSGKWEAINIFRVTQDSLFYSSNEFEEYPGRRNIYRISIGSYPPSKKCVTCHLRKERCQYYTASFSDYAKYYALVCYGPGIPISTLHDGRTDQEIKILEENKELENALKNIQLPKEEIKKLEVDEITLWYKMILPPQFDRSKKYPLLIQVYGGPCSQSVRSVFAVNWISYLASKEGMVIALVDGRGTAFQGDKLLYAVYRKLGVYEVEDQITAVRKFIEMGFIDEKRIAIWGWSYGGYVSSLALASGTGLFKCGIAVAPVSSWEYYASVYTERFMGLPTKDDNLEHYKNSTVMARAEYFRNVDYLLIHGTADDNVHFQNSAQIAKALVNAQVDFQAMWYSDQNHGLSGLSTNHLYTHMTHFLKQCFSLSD
Protocol for Kinetic solubility: Kinetic solubility was measured as described in Comput Aided Mol Des 2015, 29, 795.

Compound	rHep CLint [1] [μL/min/1E6]	microsomal CLint [2, 5] [µL/min/mg]	pIC50 [3]	pIC50 [4]	solubility (Kinetic solubility; [6]) [µM]	hFAP Binding assay k(off) (hFAP (M39-A757)) [s⁻¹]	hFAP Binding assay k(on) (hFAP (M39-A757)) [M⁻¹ s⁻¹]	pKd (hFAP (M39-A757))	HLM CLint ([2]; n = 1 or average of n = 2-3) [µL/min/mg]	solubility (Kinetic solubility; [7]) [µM]	microsomal CLint [2] [µL/min/mg]	solubility (Kinetic solubility; kinetic from dmso stock) [µM]
N#C[C@@H]1CSCN1C(=O)CNC(=O)c1ccnc2ccc(N3C[C@@H]4CCC[C@@H]43)cc12 (mixture of isomers) [Example 156, 6-((1RS,5RS)-6-Azabicyclo[3.2.0]heptan-6-yl)-N-(2-((R)-4-cyanothiazolidin-3-yl)-2-oxoethyl)quinoline-4-carboxamide]	120	140	6.51	9.66	100	0.000066	1200000	10.25				
C[C@H]1N(c2ccc3nccc(C(=O)NCC(=O)N4CSC[C@H]4C#N)c3c2)CC1(F)F (mixture of isomers) [Example 159, N-(2-((R)-4-Cyanothiazolidin-3-yl)-2-oxoethyl)-6-((RS)-3,3-difluoro-2-methylazetidin-1-yl)quinoline-4-carboxamide]	47	61	6.55	10.14	550	0.000092	2100000	10.41				
N#C[C@@H]1CSCN1C(=O)CNC(=O)c1ccnc2ccc(N3CCOC[C@@H]3C(F)(F)F)cc12 (single isomer, unassigned) [Example 84, N-(2-((R)-4-Cyanothiazolidin-3-yl)-2-oxoethyl)-6-((R*)-3-(trifluoromethyl)-morpholino)quinoline-4-carboxamide]	26		6.15	10.13	940 (≈ 451 µg/mL)	0.00011	1200000	9.92	64			
N#C[C@@H]1CSCN1C(=O)CNC(=O)c1ccnc2ccc(N3CCOC[C@@H]3C(F)(F)F)cc12 (single isomer, unassigned) [Example 85, N-(2-((R)-4-Cyanothiazolidin-3-yl)-2-oxoethyl)-6-((R*)-3-(trifluoromethyl)-morpholino)quinoline-4-carboxamide]	35		6.14	10.06		0.00011	4000000	10.49	260	800 (≈ 384 µg/mL)		
N#C[C@@H]1CSCN1C(=O)CNC(=O)c1ccnc2ccc(N3CCC[C@@H]3C3CC3)cc12 (single isomer, unassigned) [Example 199, N-(2-((R)-4-Cyanothiazolidin-3-yl)-2-oxoethyl)-6-((R*)-2-cyclopropyl-pyrrolidin-1-yl)quinoline-4-carboxamide]	250	> 300	6.77	9.52	85 (≈ 37 µg/mL)	0.00026	2300000	10.00				
N#C[C@@H]1CSCN1C(=O)CNC(=O)c1ccnc2ccc(N3CCC[C@H]3C3CC3)cc12 (single isomer, unassigned) [Example 200, N-(2-((R)-4-Cyanothiazolidin-3-yl)-2-oxoethyl)-6-((R*)-2-cyclopropyl-pyrrolidin-1-yl)quinoline-4-carboxamide]	>300	> 300	6.89	9.62	81 (≈ 35.3 µg/mL)	0.00023	2500000	10.05				
C[C@@H]1CN(c2ccc3nccc(C(=O)NCC(=O)N4CSC[C@H]4C#N)c3c2)C[C@H]1C (single isomer, unassigned) [Example 225, N-(2-((R)-4-Cyanothiazolidin-3-yl)-2-oxoethyl)-6-((3R*,4R*)-3,4-dimethylpyrrolidin-1-yl)quinoline-4-carboxamide]	37	110	6.33	9.96				10.11		2.2 (≈ 0.932 µg/mL)		
C[C@@H]1CN(c2ccc3nccc(C(=O)NCC(=O)N4CSC[C@H]4C#N)c3c2)C[C@H]1C (single isomer, unassigned) [Example 226, N-(2-((R)-4-Cyanothiazolidin-3-yl)-2-oxoethyl)-6-((3R*,4R*)-3,4-dimethylpyrrolidin-1-yl)quinoline-4-carboxamide]	44		6.18	9.70				10.36	94	4.5 (≈ 1.91 µg/mL)		
N#C[C@@H]1CSCN1C(=O)CNC(=O)c1ccnc2ccc(N3CCOc4ccccc43)cc12 [Example 6, (R)—N-(2-(4-Cyanothiazolidin-3-yl)-2-oxoethyl)-6-(2,3-dihydro-4H-benzo[b][1,4]oxazin-4-yl)quinoline-4-carboxamide]	100		6.70	9.29	120 (≈ 55.1 µg/mL)	18	40000000000	9.42				
Cc1cc2nccc(C(=O)NCC(=O)N3CSC[C@H]3C#N)c2cc1N1CCOCC1 [Example 10, (R)—N-(2-(4-Cyanothiazolidin-3-yl)-2-oxoethyl)-7-methyl-6-morpholino-quinoline-4-carboxamide]	41	130	6.03	10.27	270 (≈ 115 µg/mL)	0.000056	370000	9.82				
CC1(C)CN(c2ccc3nccc(C(=O)NCC(=O)N4CSC[C@H]4C#N)c3c2)C(=O)O1 [Example 13, (R)—N-(2-(4-Cyanothiazolidin-3-yl)-2-oxoethyl)-6-(5,5-dimethyl-2-oxooxazolidin-3-yl)quinoline-4-carboxamide]	5.4	12	6.42	10.39	27 (≈ 11.9 µg/mL)	0.000076	9200000	10.85				
CC1(C)CN(c2ccc3nccc(C(=O)NCC(=O)N4CSC[C@H]4C#N)c3c2)CCC1(F)F [Example 38, (R)—N-(2-(4-Cyanothiazolidin-3-yl)-2-oxoethyl)-6-(4,4-difluoro-3,3-dimethylpiperidin-1-yl)quinoline-4-carboxamide]	>300	> 300	6.32	10.00	33 (≈ 15.6 µg/mL)	0.000078	520000	9.96				
N#C[C@@H]1CSCN1C(=O)CNC(=O)c1ccnc2ccc(N3CCC4(CC3)OCCCO4)cc12 [Example 227, (R)—N-(2-(4-cyanothiazolidin-3-yl)-2-oxoethyl)-6-(1,5-dioxa-9-azaspiro[5.5]undecan-9-yl)quinoline-4-carboxamide]	2.8		6.22								17	852 (≈ 410 µg/mL)
